The IC50 is the concentration that inhibits the measured activity by half.

Structures can show the parent of a compound that is named as a salt. A value given as a limit tells only on which side of the number the result lay.

Among the data in patent US8207180B2, “Tricyclic indoles and (4,5-dihydro) indoles” (Nerviano Medical Sciences S.R.L., priority 2006, dated 2012) are IC50 values, retold here.

Experiment [1] addresses Cdc7/Dbf4 (Homo sapiens, UniProt O00311). Kind of experiment: Inhibition assay of Cdc7/Dbf4 activity (Dowex resin capture, 33P-ATP, MCM2 substrate). The format is biochemical. Conditions: MCM2 6 μM, ATP 2 μM, enzyme 2 nM, 60 min rt. As for the experimental part:
Inhibition Assay of Cdc7 Activity
The inhibiting activity of putative Cdc7 inhibitors and the potency of selected compounds is determined through a method of assay based on the use of Dowex resin capture technology.
The assay consists of the transfer of radioactivity labeled phosphate moiety by the kinase to an acceptor substrate. The resulting 33P-labeled product is separated from unreacted tracer, transferred into a scintillation cocktail and light emitted is measured in a scintillation counter.
The inhibition assay of Cdc7/Dbf4 activity is performed according to the following protocol.
The MCM2 substrate is trans-phosphorylated by the Cdc7/Dbf4 complex in the presence of ATP traced with γ^33-ATP. The reaction is stopped by addition of Dowex resin in the presence of formic acid. Dowex resin particles capture unreacted γ^33-ATP and drag it to the bottom of the well while ^33P phosphorylated MCM2 substrate remains in solution. The supernatant is collected, transferred into Optiplate plates and the extent of substrate phosphorylation is evaluated by β counting.
The inhibition assay of Cdc7/Dbf4 activity was performed in 96 wells plate according to the following protocol.
To each well of the plate were added: • 10 μl test compound (10 increasing concentrations in the nM to uM range to generate a dose-response curve). The solvent for test compounds contained 3% DMSO. (final concentration 1%) • 10 μl substrate MCM2 (6 μM final concentration), a mixture of cold ATP (2 μM final concentration) and radioactive ATP (1/5000 molar ratio with cold ATP). • 10 μl enzyme (Cdc7/Dbf4, 2 nM final concentration) that started the reaction. The buffer of the reaction consisted in 50 mM HEPES pH 7.9 containing 15 mM MgCl2, 2 mM DTT, 3 uM NaVO3, 2 mM glycerophosphate and 0.2 mg/ml BSA. • After incubation for 60 minutes at room temperature, the reaction was stopped by adding to each well 150 μl of Dowex resin in the presence of 150 mM formic acid. After other 60 min incubation, 50 μl of suspension were withdrawn and transferred into 96-well OPTIPLATEs containing 150 μl of MicroScint 40 (Packard); after 5-10 minutes shaking the plates were read for 1 min in a Packard TOP-Count radioactivity reader.
IC50 determination: inhibitors were tested at different concentrations ranging from 0.0005 to 10 μIM. Experimental data were analyzed by the computer program Assay Explorer using the four parameter logistic equation: y=bottom+(top−bottom)/(1+10^((log IC50−x)*slope)) where x is the logarithm of the inhibitor concentration, y is the response; y starts at bottom and goes to top with a sigmoid shape.

The target in experiment [2] is AKT-1 (Homo sapiens, UniProt P31749). Briefly: AKT kinase inhibition assay: Dowex technique (AKT1, Aktide substrate). The format is biochemical. The conditions noted are these: AKT1 5 nM, Aktide 30 μM, ATP 132 μM, 60 min rt. The source says:
Method for AKT Kinase Inhibition Assay: Dowex Technique
General Principle for Kinase Inhibition Assays
Specific peptide or protein substrates are trans-phosphorylated by their specific serine -threonine or tyrosine kinase, in the presence of ATP traced with ^33Pγ-ATP, and in the presence of their own optimal buffer and cofactors.
At the end of the phosphorylation reaction, more than 98% cold ATP and radioactive ATP is captured by an excess of the ion exchange dowex resin; the resin then settles down to the bottom of the reaction plate by gravity.
Supernatant, containing the phosphorylated substrate, is subsequently withdrawn and transferred into a counting plate, then evaluated by β-counting.
• TRIS 50 mM, pH 7.5 • MgCl2 10 mM • DTT 1 mM • NaVO3 […] • BSA 0.2 mg/ml • Assay conditions (final concentrations) for AKT1 • Enzyme concentration (AKT1)=5 nM • Substrate concentration (Aktide, 14 residues peptide, from PRIMM)=30 μM • ATP=132 μM • ^33P-γ-ATP=0.88 nM Robotized Dowex Assay
The “test” mixture consisted of: • 1) 3× Enzyme mix (done in Kinase Buffer 3×), 5 μl/well • 2) 3× substrate and ATP mix (done in DDH2O), together with ^33P-γ-ATP, 5 μl/well • 3) 3× test compounds (diluted into DDH2O-3% DMSO)-5 μl/well Dilution of Compounds
Test compounds are received as 100% DMSO solution at the indicated concentrations: • i—for % inhibition studies, individual dilution plates at 1 mM, 100 μM and 10 μM are prepared in 100% DMSO, then diluted at a 3× concentration (30, 3 and 0.3 μM) in DDH2O, 3% DMSO. A Multimek 96 (Beckman) is used for dilutions and compound pipetting into the test plates • ii—for IC50 determination, compounds are received as 1 mM, 100% DMSO solutions, plated into the first column of a microtiter plate (A1 to G1), 100 μl.
Well H1 is left empty for the internal standard inhibitor, staurosporine.
A Biomek 2000 (Beckman) is used for serial 1:3 dilutions in water, 3% DMSO, from column A1 to A10 and for all the seven compounds in the plate. In a standard experiment, the highest concentration of all compounds is 30 μM, then diluted in the final test mixture down to 10 μM.
384-well plates, V bottom (test plates) are prepared with 5 μl of the compound dilution (3×) and then placed onto a PlateTrak 12 robotized station (Perkin Elmer; the robot has one 384-tips pipetting head for starting the assay plus one 96-tips head for dispensing the resin) together with one reservoir for the Enzyme mix (3×) and one for the ATP mix (3×).
At the start of the run, the robot aspirates 5 μl of ATP mix, makes an air gap inside the tips (3 μl) and aspirates 5 μl of AKT mix. The following dispensation into the plates allows the kinase reaction to start upon 3 cycles of mixing, done by the robot itself.
The robot incubates the plates for 60 minutes at room temperature, and then stops the reaction by pipetting 70 μl of dowex resin suspension into the reaction mix. Three cycles of mixing are done immediately after the addition of the resin.
Another mixing cycle is performed after all the plates are stopped, this time using normal tips: the plates are then allowed to rest for about one hour in order to maximize ATP capture. At this point, 20 μl of the supernatant are transferred into 384-Optiplates (Perkin-Elmer), with 70 μl of Microscint 40 (Perkin-Elmer); after 5 min of orbital shaking the plates are read on a Perkin-Elmer Top Count radioactivity counter.
Data are analysed by an internally customized version of the SW package “Assay Explorer” that provides either % inhibition for primary assays or sigmoidal fittings of the ten-dilutions curves for IC50 determination, for the secondary assays/hit confirmation routines.

AKT-1, sequence (P31749 whole entry): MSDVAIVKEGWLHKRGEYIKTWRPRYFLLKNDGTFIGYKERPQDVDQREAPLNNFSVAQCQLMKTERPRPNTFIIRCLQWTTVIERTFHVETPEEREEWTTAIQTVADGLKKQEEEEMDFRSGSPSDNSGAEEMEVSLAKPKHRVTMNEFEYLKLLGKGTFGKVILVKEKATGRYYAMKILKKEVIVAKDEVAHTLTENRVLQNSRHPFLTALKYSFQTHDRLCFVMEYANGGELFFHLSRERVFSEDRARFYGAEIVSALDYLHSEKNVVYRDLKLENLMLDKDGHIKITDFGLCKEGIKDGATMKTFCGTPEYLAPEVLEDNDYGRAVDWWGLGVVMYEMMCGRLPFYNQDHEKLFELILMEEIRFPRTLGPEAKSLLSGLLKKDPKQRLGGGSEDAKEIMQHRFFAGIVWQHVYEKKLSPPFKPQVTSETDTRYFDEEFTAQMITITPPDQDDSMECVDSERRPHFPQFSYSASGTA
Cdc7/Dbf4, sequence (O00311 whole entry): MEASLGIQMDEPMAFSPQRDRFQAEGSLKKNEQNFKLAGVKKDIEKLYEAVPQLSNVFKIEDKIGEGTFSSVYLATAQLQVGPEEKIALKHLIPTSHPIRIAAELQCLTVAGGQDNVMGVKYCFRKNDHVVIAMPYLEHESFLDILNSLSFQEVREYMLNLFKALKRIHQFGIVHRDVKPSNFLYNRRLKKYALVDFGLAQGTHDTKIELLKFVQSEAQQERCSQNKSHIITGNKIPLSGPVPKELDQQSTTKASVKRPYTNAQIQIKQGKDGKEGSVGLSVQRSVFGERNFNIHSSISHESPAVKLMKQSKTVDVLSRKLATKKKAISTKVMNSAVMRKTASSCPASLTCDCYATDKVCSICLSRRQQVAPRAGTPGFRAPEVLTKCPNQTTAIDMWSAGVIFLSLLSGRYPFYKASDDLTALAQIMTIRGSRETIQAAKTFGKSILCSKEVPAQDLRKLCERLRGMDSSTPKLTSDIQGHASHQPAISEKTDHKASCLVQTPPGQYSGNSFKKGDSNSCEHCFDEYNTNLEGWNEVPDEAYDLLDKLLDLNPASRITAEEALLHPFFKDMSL
Cdc7/Dbf4, sequence (Q9UBU7 whole entry partner): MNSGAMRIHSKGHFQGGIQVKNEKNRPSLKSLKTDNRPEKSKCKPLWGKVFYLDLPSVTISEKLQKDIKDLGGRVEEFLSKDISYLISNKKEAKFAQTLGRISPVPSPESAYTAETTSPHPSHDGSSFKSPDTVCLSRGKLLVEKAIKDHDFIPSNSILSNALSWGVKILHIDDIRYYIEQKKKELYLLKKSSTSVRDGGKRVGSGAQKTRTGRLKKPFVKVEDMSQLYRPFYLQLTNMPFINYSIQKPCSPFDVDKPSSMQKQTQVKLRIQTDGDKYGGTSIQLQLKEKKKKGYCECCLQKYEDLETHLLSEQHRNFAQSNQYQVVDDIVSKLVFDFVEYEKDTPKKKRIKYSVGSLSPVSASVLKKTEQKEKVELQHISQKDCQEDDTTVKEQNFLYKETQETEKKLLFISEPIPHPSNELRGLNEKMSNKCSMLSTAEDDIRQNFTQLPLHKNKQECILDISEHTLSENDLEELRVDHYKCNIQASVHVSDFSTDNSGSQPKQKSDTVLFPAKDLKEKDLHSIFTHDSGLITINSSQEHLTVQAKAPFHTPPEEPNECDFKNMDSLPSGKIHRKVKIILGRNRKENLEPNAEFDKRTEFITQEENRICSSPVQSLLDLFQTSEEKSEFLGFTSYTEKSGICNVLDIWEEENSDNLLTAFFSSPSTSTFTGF

For `Cn1cc(C(=O)O)c2ccc3[nH]ncc3c21` [B2, 1-Methyl-1,6-dihydro-1,6,7-triaza-as-indacene-3-carboxylic acid], the IC50 in experiment [1] was < 100 nM.

Turning to `Cn1cc(C(N)=O)c2ccc3n[nH]cc3c21` [B3, 1-Methyl-1,7-dihydro-1,6,7-triaza-as-indacene-3-carboxylic acid amide], in experiment [1], the IC50 was < 100 nM.

For `Cn1c(Cl)c(C(N)=O)c2ccc3[nH]ncc3c21` [C1, 2-Chloro-1-methyl-1,6-dihydro-1,6,7-triaza-as-indacene-3-carboxylic acid amide], in experiment [1], the IC50 was < 100 nM.

As to `Cn1c(-c2ccccc2)c(C(N)=O)c2ccc3n[nH]cc3c21` [C2, 1-Methyl-2-phenyl-1,7-dihydro-1,6,7-triaza-as-indacene-3-carboxylic acid amide], in experiment [1], the IC50 is < 100 nM.

`O=C(O)c1c[nH]c2c1CCc1cnccc1-2` [E6, 4,5-Dihydro-1H-pyrrolo[2,3-f]isoquinoline-3-carboxylic acid]: the half-maximal inhibitory concentration (IC50) in experiment [1] was < 1000 nM.

Turning to `O=C(O)c1cn(CC(F)(F)F)c2c1CCc1cnccc1-2` [E7, 1-(2,2,2-Trifluoroethyl)-4,5-dihydro-1H-pyrrolo[2,3-f]isoquinoline-3-carboxylic acid], the IC50 in experiment [1] is < 1000 nM.

Consider `NC(=O)c1c[nH]c2c1CCc1cnccc1-2` [E10, 4,5-Dihydro-1H-pyrrolo[2,3-f]isoquinoline-3-carboxylic acid amide], for which, in experiment [1], the IC50 is < 1000 nM.

In the case of `CC(C)(C)OC(=O)NC[C@H](Cc1ccccc1)NC(=O)c1c[nH]c2c1CCc1cnccc1-2` [E11, tert-Butyl {(2S)-2-[(4,5-dihydro-1H-pyrrolo[2,3-f]isoquinolin-3-ylcarbonyl)amino]-3-phenylpropyl}carbamate], the IC50 in experiment [2] is < 500 nM.

In the case of `CC(C)(C)OC(=O)NC[C@H](Cc1ccccc1)NC(=O)c1cn(CC(F)(F)F)c2c1CCc1cnccc1-2` [E12, Tert-Butyl [(2S)-3-phenyl-2-({[1-(2,2,2-trifluoroethyl) -4,5-dihydro-1H-pyrrolo[2,3-f]isoquinolin-3-yl]carbonyl}amino)propyl]carbamate], in experiment [2], the IC50 is < 500 nM.

As to `NC[C@H](Cc1ccccc1)NC(=O)c1cn(CC(F)(F)F)c2c1CCc1cnccc1-2` [E14, N-[(1S)-2-Amino-1-benzylethyl]-1-(2,2,2-trifluoroethyl)-4,5-dihydro-1H-pyrrolo[2,3-f]isoquinoline-3-carboxamide], in experiment [2], the IC50 is < 500 nM.

Regarding `NC[C@H](Cc1ccccc1)NC(=O)c1c[nH]c2c1CCc1cnccc1-2` [E15, N-[(1S)-2-Amino-1-benzylethyl]-4,5-dihydro-1H-pyrrolo[2,3-f]isoquinoline-3-carboxamide], the IC50 in experiment [2] was < 500 nM.

Take `NC[C@H](Cc1ccccc1)NC(=O)c1cn(CCO)c2c1CCc1cnccc1-2` [E21, N-[(1S)-2-Amino-1-benzylethyl]-1-(2-hydroxyethyl)-4,5-dihydro-1H-pyrrolo[2,3-f]isoquinoline-3-carboxamide]: in experiment [2], the IC50 is < 500 nM.

Consider `CCOC(=O)c1c(Br)[nH]c2c1CCc1cnccc1-2` [F1, 2-Bromo-4,5-dihydro-1H-pyrrolo[2,3-f]isoquinoline-3-carboxylic acid ethyl ester hydrobromide], for which, in experiment [1], the IC50 was < 1000 nM.

With `Cc1ccccc1-c1c(C(N)=O)c2c(n1C)-c1ccncc1CC2` [F5, 1-Methyl-2-o-tolyl-4,5-dihydro-1H-pyrrolo[2,3-f]isoquinoline-3-carboxylic acid amide], in experiment [1], the IC50 is < 100 nM.

Regarding `NC(=O)c1c(-c2ccccc2)[nH]c2c1ccc1cnccc12` [G3, 2-Phenyl-1H-pyrrolo[2,3-f]isoquinoline-3-carboxylic acid amide], the IC50 in experiment [1] is < 100 nM.

For `O=C(O)c1c(-c2ccc(Br)cc2)[nH]c2c1ccc1cnccc12` [G5, 2-(4-Bromo-phenyl)-1H-pyrrolo[2,3-f]isoquinoline-3-carboxylic acid], the IC50 in experiment [1] is < 100 nM.

Take `NC(=O)c1c(-c2ccc(Br)cc2)[nH]c2c1ccc1cnccc12` [G6, 2-(4-Bromo-phenyl)-1H-pyrrolo[2,3-f]isoquinoline-3-carboxylic acid amide]: the IC50 in experiment [1] is < 100 nM.

`O=Cc1c(-c2ccc(N3CCOCC3)cc2)[nH]c2c1ccc1cnccc12` [G7, 2-(4-Morpholin-4-yl-phenyl)-1H-pyrrolo[2,3-f]isoquinoline-3-carbaldehyde]: the IC50 in experiment [1] is < 1000 nM.

For the compound `O=Cc1c(-c2ccncc2)[nH]c2c1ccc1cnccc12` [H1, 2-Pyridin-4-yl-1H-pyrrolo[2,3-f]isoquinoline-3-carbaldehyde], in experiment [1], the IC50 was < 100 nM.

As for `NC(=O)c1c(-c2ccncc2)[nH]c2c1ccc1cnccc12` [H3, 2-Pyridin-4-yl-1H-pyrrolo[2,3-f]isoquinoline-3-carboxylic acid amide], the IC50 in experiment [1] was < 100 nM.

Regarding `O=C(O)c1cc2c([nH]1)-c1ccncc1CC2` [L2, 4,5-Dihydro-1H-pyrrolo[2,3-f]isoquinoline-2-carboxylic acid], the concentration for half-maximal inhibition (IC50) in experiment [1] is < 1000 nM.

`NC[C@H](Cc1ccccc1)NC(=O)c1cc2c([nH]1)-c1ccncc1CC2` [L6, N-[(1S)-2-Amino-1-benzylethyl]-4,5-dihydro-1H-pyrrolo[2,3-f]isoquinoline-2-carboxamide]: in experiment [2], the IC50 is < 500 nM.

Take `Cn1c2c(c(C(N)=O)c1-c1ccccc1)CCc1cnc(N)nc1-2` [N4, 8-Amino-1-methyl-2-phenyl-4,5-dihydro-1H-1,7,9-triaza-cyclopenta[a]naphthalene-3-carboxylic acid amide]: the IC50 in experiment [1] is < 1000 nM.

As to `NC(=O)c1c(-c2ccccc2)[nH]c2c1ccc1cnc(N)nc12` [N9, 8-Amino-2-phenyl-1H-1,7,9-triaza-cyclopenta[a]naphthalene-3-carboxylic acid amide], the IC50 in experiment [1] is < 100 nM.

For `Cn1c(-c2ccccc2)c(C(N)=O)c2ccc3cnc(N)nc3c21` [N10, 8-Amino-1-methyl-2-phenyl-1H-1,7,9-triaza-cyclopenta[a]naphthalene-3-carboxylic acid amide], the IC50 in experiment [1] is < 100 nM.
